How the values were obtained:
Assay type in all cases: in vivo
[1] = test system: Rat Hind-Limb Ischemia Model; assay: Blood flow by non-contact LASER Doppler, rat hind-limb ischemia; conditions: for Mean change in blood flow from Day 0 to Day 28: vehicle 14.8
Protocol: (§1) The femoral artery and vein were ligated twice with 4-0 silk thread and transected between the ligatures. The wound was closed with 3-0 silk thread and the rats were allowed to recover.
(§2) Animals in group 4M and 5M were injected s.c. once on Day 8, see Table 12.
Blood flows in legs from both sides were measured with a non-contact LASER Doppler before surgery on Day −1 and on Days: 1, 7, 14, 21 and 28 post operation. Blood flow measurements were expressed as the ratio of the flow in the ischemic limb to that in the normal limb.

[2] = Mortality and clinical signs, tMCAO rat study; conditions: for Rats that died within 10 hours after dosing: vehicle group 1M: 6
Protocol: Started two hours after occlusion (immediately after reperfusion), animals in groups 2M and 3M (dextran sulfate at doses of 30 mg/kg three times a week or 15 mg/kg daily) and animals in group 1M (vehicle control) were injected subcutaneously, see Table 10.
Eighteen rats died during the study. One rat died just after reperfusion before dosing, and seventeen rats within 10 hours after dosing (6 in group 1M, 6 in group 2M and 5 in group 3M).

[3] = test system: Rat Hind-Limb Ischemia Model; assay: Angiography analysis, rat hind-limb ischemia; conditions: 28 days after induction of hind-limb ischemia; p<0.01 and p<0.001
Protocol: The number of intersections between contrast-filled vessels was determined by image analysis 28 days after induction of hind-limb ischemia.

[4] = Adverse effects, rat hind-limb ischemia study; conditions: 30 and 3 mg/kg s.c., 3 times a week or single dose
Protocol: as §2
In the present study blood flow improvement in the rat hind-limb ischemia model was examined in order to evaluate the efficacy of dextran sulfate in two different doses and treatment regimes. […] Both doses and administration regimens were efficacious. No spontaneous amputations or toe necrosis occurred in any of the treated or control animal groups. […] Collectively the data of this study confirmed the therapeutic efficacy of dextran sulfate for the treatment of occlusive peripheral arterial disease in the rat hind-limb ischemia model.

[5] = test system: Rat Hind-Limb Ischemia Model; assay: Ischemic severity (necrosis grades), rat hind-limb ischemia; conditions: all groups incl. vehicle; Day 7 up to Day 28
Protocol: as §1, §2

## Dextran sulfate
[1]; group 2M, 30 mg/kg s.c. 3 times a week starting on Day 8
  Mean change in blood flow from Day 0 to Day 28: 47.7%
[1]; group 3M, 30 mg/kg (as printed in Table 12) s.c. 3 times a week starting on Day 8
  Mean change in blood flow from Day 0 to Day 28: 39.1%
[1]; group 4M, 30 mg/kg s.c. administered once
  Mean change in blood flow from Day 0 to Day 28: 44.0%
[1]; group 5M, 3 mg/kg s.c. administered once
  Mean change in blood flow from Day 0 to Day 28: 41.0%
[1]; groups 2M, 3M, 4M and 5M vs 1M, Day 14 through Day 28
  Ratio of blood flow HLI-injured versus non-injured leg, treated groups vs control: statistically significant differences
[2]; all animal groups
  Adverse clinical signs: No adverse clinical signs unrelated to the model
[2]; group 2M, 30 mg/kg s.c. 3 times a week
  Rats that died within 10 hours after dosing: 6 rats
[2]; group 3M, 15 mg/kg s.c. daily
  Rats that died within 10 hours after dosing: 5 rats
[3]
  Angiography: collaterals in affected limb vs vehicle control: significantly large numbers of collaterals
[4]
  Adverse effects in the treated animals: did not cause any adverse effects
[5]
  Toe necrosis or foot amputation: no toe necrosis or foot amputation was found
